According to US9688691B2, “Macrocyclic quinazole derivatives and their use as MTKI” (Janssen Pharmaceutica NV, priority 2004, dated 2017):

Tests used:
Format in all cases: biochemical
[1] = target: Lyn (h) (Homo sapiens, UniProt P07948); experiment: Kinase profiling, glass-fiber filter technology: Lyn; details: test concentration of 10^−6 M; read-out: Lyn inhibition score
Method: (§1) The in vitro inhibition of a panel of kinases was assessed using the glass-fiber filter technology as described by Davies, S. P. et al., Biochem J. (2000), 351; p. 95-105.
(§2) In the glass-fiber filter technology the activity of the kinase of interest is measured using an appropriate substrate that is incubated with the aforementioned kinase protein in the presence of (^33P) radiolabeled ATP. (^33P) Phosporylation of the substrate is subsequently measured as radioactivity bound on a glassfiber-filter.
(§3) All kinases are pre-diluted to a 10× working concentration prior to addition into the assay. The composition of the dilution buffer for each kinase is detailed below.
(§4) All substrates are dissolved and diluted to working stocks in de-ionised water.
(§5) In a final reaction volume of 25 μl, Lyn (h) (5-10 mU) is incubated with 50 mM Tris pH 7.5, 0.1 mM EGTA, 0.1 mM Na3VO4, 0.1% β-mercaptoethanol, 0.1 mg/ml poly(Glu, Tyr) 4:1, 10 mM MgAcetate and [γ-^33P-ATP] (specific activity approx. 500 cpm/pmol, concentration as required). The reaction is initiated by the addition of the MgATP mix. After incubation for 40 minutes at room temperature, the reaction is stopped by the addition of 5 μl of a 3% phosphoric acid solution. 10 μl of the reaction is then spotted onto a Filtermat A and washed three times for 5 minutes in 75 mM phosphoric acid and once in methanol prior to drying and scintillation counting.

[2] = target: EGFR (h) (Homo sapiens, UniProt P00533); experiment: Kinase profiling, glass-fiber filter technology: EGFR; details: test concentration of 10^−6 M; read-out: EGFR inhibition score
EGFR (h), sequence (P00533 25-1210): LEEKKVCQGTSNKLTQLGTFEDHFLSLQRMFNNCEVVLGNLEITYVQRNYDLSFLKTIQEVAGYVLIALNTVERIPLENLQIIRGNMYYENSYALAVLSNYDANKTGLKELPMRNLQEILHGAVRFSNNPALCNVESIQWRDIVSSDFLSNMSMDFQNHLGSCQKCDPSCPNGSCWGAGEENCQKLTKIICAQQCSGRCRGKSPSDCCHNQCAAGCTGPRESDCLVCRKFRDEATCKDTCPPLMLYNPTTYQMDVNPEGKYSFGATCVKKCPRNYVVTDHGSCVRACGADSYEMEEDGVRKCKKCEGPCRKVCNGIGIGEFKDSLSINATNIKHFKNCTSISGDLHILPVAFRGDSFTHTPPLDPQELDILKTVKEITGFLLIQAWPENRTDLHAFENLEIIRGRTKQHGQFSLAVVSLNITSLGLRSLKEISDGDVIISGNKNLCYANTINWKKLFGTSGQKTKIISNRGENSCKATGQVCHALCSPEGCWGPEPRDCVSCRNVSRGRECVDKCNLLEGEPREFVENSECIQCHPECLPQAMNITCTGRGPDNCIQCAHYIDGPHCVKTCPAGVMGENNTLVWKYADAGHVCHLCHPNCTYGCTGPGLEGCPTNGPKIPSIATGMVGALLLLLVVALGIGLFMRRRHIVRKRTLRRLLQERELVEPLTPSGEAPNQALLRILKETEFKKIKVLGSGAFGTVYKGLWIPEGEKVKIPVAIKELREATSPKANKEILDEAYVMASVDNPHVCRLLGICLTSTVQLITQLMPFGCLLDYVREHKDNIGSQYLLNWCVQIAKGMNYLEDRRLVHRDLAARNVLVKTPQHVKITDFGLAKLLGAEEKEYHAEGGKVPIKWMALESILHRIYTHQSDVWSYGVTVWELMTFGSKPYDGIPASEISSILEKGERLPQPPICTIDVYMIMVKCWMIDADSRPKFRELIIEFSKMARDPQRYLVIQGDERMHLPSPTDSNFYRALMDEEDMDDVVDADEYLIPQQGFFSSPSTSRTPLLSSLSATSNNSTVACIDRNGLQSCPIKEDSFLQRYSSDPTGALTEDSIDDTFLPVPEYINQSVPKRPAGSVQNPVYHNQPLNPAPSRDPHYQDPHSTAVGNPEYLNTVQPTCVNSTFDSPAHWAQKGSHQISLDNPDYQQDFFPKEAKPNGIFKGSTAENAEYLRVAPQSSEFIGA
Method: as §1, §2, §3, §4
as §5, with “μl, EGFR” for “μl, Lyn”, “with 8” for “with 50”, “mM MOPS” for “mM Tris”, “pH 7.0, 0.2” for “pH 7.5, 0.1”, “mM EDTA, 10” for “mM EGTA, 0.1”, “mM MnCl2,” for “mM Na3VO4, 0.1% β-mercaptoethanol,”

[3] = target: Lck (h) (Homo sapiens, UniProt P06239); experiment: Kinase profiling, glass-fiber filter technology: Lck; details: test concentration of 10^−6 M; read-out: Lck inhibition score
Lck (h), sequence (P06239 whole entry): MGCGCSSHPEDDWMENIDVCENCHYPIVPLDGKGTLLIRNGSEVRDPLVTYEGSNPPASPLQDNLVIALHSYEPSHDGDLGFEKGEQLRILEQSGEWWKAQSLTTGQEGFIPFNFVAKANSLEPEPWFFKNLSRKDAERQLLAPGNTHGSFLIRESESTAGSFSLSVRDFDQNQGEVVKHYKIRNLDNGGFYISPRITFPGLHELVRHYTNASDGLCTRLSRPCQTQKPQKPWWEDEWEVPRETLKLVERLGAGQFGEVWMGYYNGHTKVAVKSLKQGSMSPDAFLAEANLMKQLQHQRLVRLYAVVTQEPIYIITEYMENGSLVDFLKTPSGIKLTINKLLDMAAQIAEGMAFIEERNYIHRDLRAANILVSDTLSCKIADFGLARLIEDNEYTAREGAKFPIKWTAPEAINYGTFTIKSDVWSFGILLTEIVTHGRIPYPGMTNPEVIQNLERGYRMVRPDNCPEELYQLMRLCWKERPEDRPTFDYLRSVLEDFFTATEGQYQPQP
Method: as §1, §2, §3, §4
(§6) In a final reaction volume of 25 μl, Lck (h) (5-10 mU) is incubated with 50 mM Tris pH 7.5, 0.1 mM EGTA, 0.1 mM Na3VO4, 250 μM KVEKIGEGTYGVVYK (Cdc2 peptide), 10 mM MgAcetate and [γ-^33P-ATP] (specific activity approx. 500 cpm/pmol, concentration as required). The reaction is initiated by the addition of the MgATP mix. After incubation for 40 minutes at room temperature, the reaction is stopped by the addition of 5 μl of a 3% phosphoric acid solution.
(§7) 10 μl of the reaction is then spotted onto a P30 filtermat and washed three times for 5 minutes in 75 mM phosphoric acid and once in methanol prior to drying and scintillation counting.

[4] = target: cSRC (h) (Homo sapiens, UniProt P12931); experiment: Kinase profiling, glass-fiber filter technology: cSRC; details: test concentration of 10^−6 M; read-out: cSRC inhibition score
cSRC (h), sequence (P12931 whole entry): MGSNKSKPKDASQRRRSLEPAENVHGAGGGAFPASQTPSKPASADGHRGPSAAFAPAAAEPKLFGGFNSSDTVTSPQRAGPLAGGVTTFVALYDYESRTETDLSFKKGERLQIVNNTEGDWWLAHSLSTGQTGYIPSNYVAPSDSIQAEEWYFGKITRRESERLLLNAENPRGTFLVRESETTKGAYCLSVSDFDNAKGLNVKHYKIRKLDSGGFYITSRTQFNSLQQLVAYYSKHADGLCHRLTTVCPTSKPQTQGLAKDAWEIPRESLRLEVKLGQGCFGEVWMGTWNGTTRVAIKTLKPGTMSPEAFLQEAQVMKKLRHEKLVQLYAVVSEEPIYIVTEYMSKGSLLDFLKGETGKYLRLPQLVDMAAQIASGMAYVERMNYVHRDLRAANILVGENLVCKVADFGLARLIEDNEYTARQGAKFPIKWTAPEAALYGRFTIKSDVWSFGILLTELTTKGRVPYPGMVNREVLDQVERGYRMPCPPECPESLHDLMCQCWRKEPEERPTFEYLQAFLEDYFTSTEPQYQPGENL
Method: as §1, §2, §3, §4
as §6, with “μl, cSRC” for “μl, Lck”, “with 8” for “with 50”, “mM MOPS” for “mM Tris”, “pH 7.0, 0.2” for “pH 7.5, 0.1”, “mM EDTA,” for “mM EGTA, 0.1 mM Na3VO4,”
as §7

[5] = target: Yes (h) (Homo sapiens, UniProt P07947); experiment: Kinase profiling, glass-fiber filter technology: Yes; details: test concentration of 10^−6 M; read-out: Yes inhibition score
Yes (h), sequence (P07947 whole entry): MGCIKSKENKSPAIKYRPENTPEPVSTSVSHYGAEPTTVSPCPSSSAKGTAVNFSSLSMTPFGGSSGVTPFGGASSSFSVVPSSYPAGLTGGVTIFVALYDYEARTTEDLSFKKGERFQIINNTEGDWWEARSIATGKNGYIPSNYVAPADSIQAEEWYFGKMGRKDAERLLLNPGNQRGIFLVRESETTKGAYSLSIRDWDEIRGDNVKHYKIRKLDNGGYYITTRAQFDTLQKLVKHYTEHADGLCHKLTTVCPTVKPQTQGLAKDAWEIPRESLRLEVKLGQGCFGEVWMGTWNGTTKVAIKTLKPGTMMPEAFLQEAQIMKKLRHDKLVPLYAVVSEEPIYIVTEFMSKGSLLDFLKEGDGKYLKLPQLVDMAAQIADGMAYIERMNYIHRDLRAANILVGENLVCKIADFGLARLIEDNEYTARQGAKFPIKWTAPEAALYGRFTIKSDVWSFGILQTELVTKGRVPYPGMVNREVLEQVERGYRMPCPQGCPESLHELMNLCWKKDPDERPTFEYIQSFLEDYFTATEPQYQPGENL
Method: as §1, §2, §3, §4
as §5, with “μl, Yes” for “μl, Lyn”, “with 8” for “with 50”, “mM MOPS” for “mM Tris”, “pH 7.0, 0.2” for “pH 7.5, 0.1”, “mM EDTA,” for “mM EGTA, 0.1 mM Na3VO4, 0.1% β-mercaptoethanol,”

[6] = target: Blk (m) (Mus musculus, UniProt P16277); experiment: Kinase profiling, glass-fiber filter technology: Blk; details: test concentration of 10^−6 M; read-out: Blkl inhibition score
Method: as §1, §2, §3, §4
as §5, with “Blk (m)” for “Lyn (h)”, “[γ-33P-ATP]” for “[γ-^33P-ATP]”

[7] = target: ErbB4 (h) (Homo sapiens, UniProt Q15303); experiment: Kinase profiling, glass-fiber filter technology: ErbB4; details: test concentration of 10^−6 M; read-out: ErbB4 inhibition score
Method: as §1, §2, §3, §4
(§8) In a final reaction volume of 25 μl, ErbB4 (h) (5-10 mU) is incubated with 8 mM MOPS pH 7.0, 0.2 mM EDTA, 10 mM MnCl2, 0.1 mg/ml poly(Glu, Tyr) 4:1, 10 mM MgAcetate and [γ-33P-ATP] (specific activity approx. 500 cpm/pmol, concentration as required). The reaction is initiated by the addition of the MgATP mix. After incubation for 40 minutes at room temperature, the reaction is stopped by the addition of 5 μl of a 3% phosphoric acid solution. 10 μl of the reaction is then spotted onto a Filtermat A and washed three times for 5 minutes in 75 mM phosphoric acid and once in methanol prior to drying and scintillation counting.

[8] = target: Ret human (Homo sapiens, UniProt P07949); experiment: Kinase profiling, glass-fiber filter technology: Ret; details: test concentration of 10^−6 M; read-out: Ret inhibition score
Ret human, sequence (P07949 29-1114): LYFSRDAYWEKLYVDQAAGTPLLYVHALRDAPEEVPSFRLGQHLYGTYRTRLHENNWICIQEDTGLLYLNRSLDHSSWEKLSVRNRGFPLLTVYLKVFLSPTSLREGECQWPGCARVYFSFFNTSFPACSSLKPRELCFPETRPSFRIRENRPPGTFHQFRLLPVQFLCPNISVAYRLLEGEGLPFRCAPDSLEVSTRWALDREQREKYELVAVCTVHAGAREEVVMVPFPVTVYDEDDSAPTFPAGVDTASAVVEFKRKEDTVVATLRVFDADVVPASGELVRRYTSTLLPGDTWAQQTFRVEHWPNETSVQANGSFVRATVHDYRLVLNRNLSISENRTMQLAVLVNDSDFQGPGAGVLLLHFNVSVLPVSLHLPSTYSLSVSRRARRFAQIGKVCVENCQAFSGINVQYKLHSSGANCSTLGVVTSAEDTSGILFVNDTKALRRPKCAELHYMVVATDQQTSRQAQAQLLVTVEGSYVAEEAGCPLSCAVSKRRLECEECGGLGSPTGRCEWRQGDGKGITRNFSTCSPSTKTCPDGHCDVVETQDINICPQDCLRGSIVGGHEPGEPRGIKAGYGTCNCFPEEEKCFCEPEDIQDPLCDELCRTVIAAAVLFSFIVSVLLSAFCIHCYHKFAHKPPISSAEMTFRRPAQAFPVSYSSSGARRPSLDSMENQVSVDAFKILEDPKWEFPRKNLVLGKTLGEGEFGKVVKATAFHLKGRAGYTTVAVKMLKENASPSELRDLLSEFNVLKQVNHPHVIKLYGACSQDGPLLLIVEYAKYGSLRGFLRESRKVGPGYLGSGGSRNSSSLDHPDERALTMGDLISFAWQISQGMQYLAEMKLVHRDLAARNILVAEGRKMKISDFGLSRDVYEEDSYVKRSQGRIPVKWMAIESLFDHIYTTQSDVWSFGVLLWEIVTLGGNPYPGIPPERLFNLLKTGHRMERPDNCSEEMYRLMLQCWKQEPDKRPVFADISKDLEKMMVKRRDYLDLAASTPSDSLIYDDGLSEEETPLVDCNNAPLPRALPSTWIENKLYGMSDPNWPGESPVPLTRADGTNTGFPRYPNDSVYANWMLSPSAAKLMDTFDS
Method: as §1, §2, §3, §4
as §8, with “Ret human” for “ErbB4 (h)”, “250 μM KKKSPGEYVNIEFG,” for “10 mM MnCl2, 0.1 mg/ml poly(Glu, Tyr) 4:1,”, “[γ-^33P-ATP]” for “[γ-33P-ATP]”, “P30 filtermat” for “Filtermat A”

[9] = target: Abl (h) (Homo sapiens, UniProt P00519); experiment: Kinase profiling, glass-fiber filter technology: Abl; details: test concentration of 10^−6 M; read-out: Abl inhibition score
Abl (h), sequence (P00519 whole entry): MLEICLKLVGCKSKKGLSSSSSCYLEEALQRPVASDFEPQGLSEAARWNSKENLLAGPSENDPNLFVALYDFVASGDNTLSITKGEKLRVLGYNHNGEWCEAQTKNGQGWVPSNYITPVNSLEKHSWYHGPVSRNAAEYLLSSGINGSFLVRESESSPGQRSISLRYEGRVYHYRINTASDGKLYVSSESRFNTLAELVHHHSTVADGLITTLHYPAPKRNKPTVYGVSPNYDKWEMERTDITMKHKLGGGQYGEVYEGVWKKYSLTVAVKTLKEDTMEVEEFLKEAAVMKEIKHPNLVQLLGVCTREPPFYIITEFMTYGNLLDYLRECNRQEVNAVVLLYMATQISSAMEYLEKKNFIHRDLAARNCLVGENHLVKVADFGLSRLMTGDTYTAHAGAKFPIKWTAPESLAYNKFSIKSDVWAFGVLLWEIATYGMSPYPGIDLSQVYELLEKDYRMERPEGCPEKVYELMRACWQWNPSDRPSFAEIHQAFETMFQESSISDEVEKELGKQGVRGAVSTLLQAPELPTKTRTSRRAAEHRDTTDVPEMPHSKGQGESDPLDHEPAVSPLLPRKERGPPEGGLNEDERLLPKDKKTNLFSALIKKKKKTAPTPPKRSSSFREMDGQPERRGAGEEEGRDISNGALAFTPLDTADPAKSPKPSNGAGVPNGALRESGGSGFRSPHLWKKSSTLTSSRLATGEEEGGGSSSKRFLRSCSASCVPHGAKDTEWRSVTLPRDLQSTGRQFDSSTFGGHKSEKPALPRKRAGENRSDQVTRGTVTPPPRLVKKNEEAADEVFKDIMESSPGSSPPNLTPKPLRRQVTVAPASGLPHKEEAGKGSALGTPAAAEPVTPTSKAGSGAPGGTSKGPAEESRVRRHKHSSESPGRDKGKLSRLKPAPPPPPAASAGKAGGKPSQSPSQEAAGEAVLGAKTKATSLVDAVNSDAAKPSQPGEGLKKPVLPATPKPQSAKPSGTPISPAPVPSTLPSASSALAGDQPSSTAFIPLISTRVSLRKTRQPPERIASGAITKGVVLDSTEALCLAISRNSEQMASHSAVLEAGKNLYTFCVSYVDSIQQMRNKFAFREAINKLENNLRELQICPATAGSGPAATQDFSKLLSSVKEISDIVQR
Method: as §1, §2, §3, §4
as §8, with “Abl” for “ErbB4”, “50 μM EAIYAAPFAKKK,” for “10 mM MnCl2, 0.1 mg/ml poly(Glu, Tyr) 4:1,”, “[γ-^33P-ATP]” for “[γ-33P-ATP]”, “P30 filtermat” for “Filtermat A”

[10] = target: Fyn human (Homo sapiens, UniProt P06241); experiment: Kinase profiling, glass-fiber filter technology: Fyn; details: test concentration of 10^−6 M; read-out: Fyn inhibition score
Method: as §1, §2, §3, §4
as §5, with “Fyn human” for “Lyn (h)”, “250 μM KVEKIGEGTYGVVYK (Cdc2 peptide),” for “0.1% β-mercaptoethanol, 0.1 mg/ml poly(Glu, Tyr) 4:1,”, “P30 filtermat” for “Filtermat A”

Compound | inhibition at 1 µM [1] [%] | inhibition at 1 µM [2] [%] | inhibition at 1 µM [3] [%] | inhibition at 1 µM [4] [%] | inhibition at 1 µM [5] [%] | inhibition at 1 µM [6] [%] | inhibition at 1 µM [7] [%] | inhibition at 1 µM [8] [%] | inhibition at 1 µM [9] [%] | inhibition at 1 µM [10] [%]
COc1cc2ncnc3c2cc1OCCN(CCN1CCOCC1)C(=O)CNC(=O)Cc1ccc(Cl)cc1N3 [Compound 1] | 30 to 60 | > 80 | 10 to 30 | 60 to 80 | 30 to 60 | 30 to 60 | – | – | – | –
COc1cc2ncnc3c2cc1OCCCNC(=O)[C@H](CC1CCCCC1)NC(=O)CCc1ccc(Cl)cc1N3 [Compound 8] | – | > 80 | > 80 | > 80 | > 80 | – | 60 to 80 | > 80 | 10 to 30 | 60 to 80
